Earlier results as cited in patent US20150376703A1, “METHOD AND SYSTEM TO PREDICT RESPONSE TO PAIN TREATMENTS” (PATHWAY GENOMICS CORPORATION, priority 2013, published 2015).

Key:
[1] = tested on: Glycoprotein IIIa (PLA1/A2) subunit of glycoprotein IIb/IIIa; details: patients carrying the PLA2 polymorphism
ACE (I/D) = target: T1, ACE (I/D) (Homo sapiens, UniProt P12821); details: patients bearing the ACE-II-Allele
T1 construct: host or cells: patients (endogenous enzyme)

Alpha-Adducin = details: patients who share the 460Gly/Trp polymorphism
KCNE2 (T8A in MiRP 1) = target: T2, KCNE2 (T8A in MiRP 1) (Homo sapiens, UniProt Q12809+Q9Y6J6, T8A)
T2 construct: host or cells: patients (endogenous protein)

5-Lipoxygenase (ALOX5) = target: T3, 5-Lipoxygenase (ALOX5) (Homo sapiens, UniProt P09917); details: patients who share a specific tandem repeat in the promoter
T3 construct: host or cells: patients (endogenous enzyme)
T3 sequence (P09917 1-674): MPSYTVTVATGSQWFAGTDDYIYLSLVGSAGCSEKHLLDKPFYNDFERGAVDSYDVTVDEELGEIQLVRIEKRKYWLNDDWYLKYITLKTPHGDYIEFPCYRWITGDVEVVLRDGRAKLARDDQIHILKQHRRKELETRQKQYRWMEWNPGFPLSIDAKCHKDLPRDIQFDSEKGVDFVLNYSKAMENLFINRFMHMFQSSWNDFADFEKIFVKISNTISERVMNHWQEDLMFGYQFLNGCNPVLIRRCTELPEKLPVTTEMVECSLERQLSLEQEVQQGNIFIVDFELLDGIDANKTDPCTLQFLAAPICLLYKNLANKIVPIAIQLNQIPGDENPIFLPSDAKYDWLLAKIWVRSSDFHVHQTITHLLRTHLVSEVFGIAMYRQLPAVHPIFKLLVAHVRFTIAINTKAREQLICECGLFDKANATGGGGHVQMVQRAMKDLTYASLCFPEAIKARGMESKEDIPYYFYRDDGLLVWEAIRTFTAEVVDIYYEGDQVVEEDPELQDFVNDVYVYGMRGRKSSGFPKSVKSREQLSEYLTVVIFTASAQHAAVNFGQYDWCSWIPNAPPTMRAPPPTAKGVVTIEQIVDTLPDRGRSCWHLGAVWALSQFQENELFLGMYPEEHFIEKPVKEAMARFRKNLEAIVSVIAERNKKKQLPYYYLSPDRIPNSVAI

T2 sequence (Q9Y6J6 whole entry T8A): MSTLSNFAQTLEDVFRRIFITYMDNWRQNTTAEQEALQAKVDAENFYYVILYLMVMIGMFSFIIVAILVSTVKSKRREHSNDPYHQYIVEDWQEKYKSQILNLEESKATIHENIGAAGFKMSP
T2 sequence (Q12809 whole entry): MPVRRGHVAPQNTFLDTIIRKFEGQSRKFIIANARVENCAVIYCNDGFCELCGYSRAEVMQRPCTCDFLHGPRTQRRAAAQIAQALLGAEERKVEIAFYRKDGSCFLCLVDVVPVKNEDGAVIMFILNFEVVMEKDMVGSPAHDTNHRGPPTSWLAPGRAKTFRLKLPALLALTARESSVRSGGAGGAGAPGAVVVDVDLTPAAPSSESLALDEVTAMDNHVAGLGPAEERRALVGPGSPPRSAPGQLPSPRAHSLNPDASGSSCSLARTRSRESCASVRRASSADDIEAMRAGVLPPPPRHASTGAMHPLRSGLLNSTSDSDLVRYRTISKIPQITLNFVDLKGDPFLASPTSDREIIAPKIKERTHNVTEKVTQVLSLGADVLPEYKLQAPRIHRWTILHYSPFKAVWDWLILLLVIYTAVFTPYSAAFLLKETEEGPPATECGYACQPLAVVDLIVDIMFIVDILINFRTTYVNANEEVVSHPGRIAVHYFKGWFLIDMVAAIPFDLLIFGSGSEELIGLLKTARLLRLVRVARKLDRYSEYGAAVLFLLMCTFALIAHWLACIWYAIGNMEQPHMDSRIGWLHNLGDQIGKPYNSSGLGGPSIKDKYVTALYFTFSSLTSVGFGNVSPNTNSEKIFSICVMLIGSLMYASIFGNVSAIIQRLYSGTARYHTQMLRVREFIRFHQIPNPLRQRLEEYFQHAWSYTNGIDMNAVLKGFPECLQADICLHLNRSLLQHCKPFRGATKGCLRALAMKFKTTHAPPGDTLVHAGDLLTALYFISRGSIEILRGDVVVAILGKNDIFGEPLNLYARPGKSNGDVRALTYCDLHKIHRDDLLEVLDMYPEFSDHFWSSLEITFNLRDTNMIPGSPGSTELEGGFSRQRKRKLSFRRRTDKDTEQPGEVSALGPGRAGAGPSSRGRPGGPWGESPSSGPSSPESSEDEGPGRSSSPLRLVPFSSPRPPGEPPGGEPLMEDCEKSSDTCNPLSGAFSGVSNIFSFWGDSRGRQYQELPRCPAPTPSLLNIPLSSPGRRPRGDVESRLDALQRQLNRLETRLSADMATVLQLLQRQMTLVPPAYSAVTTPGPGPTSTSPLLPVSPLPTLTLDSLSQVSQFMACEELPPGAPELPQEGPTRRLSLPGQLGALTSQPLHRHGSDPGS
T1 sequence (P12821 30-1306): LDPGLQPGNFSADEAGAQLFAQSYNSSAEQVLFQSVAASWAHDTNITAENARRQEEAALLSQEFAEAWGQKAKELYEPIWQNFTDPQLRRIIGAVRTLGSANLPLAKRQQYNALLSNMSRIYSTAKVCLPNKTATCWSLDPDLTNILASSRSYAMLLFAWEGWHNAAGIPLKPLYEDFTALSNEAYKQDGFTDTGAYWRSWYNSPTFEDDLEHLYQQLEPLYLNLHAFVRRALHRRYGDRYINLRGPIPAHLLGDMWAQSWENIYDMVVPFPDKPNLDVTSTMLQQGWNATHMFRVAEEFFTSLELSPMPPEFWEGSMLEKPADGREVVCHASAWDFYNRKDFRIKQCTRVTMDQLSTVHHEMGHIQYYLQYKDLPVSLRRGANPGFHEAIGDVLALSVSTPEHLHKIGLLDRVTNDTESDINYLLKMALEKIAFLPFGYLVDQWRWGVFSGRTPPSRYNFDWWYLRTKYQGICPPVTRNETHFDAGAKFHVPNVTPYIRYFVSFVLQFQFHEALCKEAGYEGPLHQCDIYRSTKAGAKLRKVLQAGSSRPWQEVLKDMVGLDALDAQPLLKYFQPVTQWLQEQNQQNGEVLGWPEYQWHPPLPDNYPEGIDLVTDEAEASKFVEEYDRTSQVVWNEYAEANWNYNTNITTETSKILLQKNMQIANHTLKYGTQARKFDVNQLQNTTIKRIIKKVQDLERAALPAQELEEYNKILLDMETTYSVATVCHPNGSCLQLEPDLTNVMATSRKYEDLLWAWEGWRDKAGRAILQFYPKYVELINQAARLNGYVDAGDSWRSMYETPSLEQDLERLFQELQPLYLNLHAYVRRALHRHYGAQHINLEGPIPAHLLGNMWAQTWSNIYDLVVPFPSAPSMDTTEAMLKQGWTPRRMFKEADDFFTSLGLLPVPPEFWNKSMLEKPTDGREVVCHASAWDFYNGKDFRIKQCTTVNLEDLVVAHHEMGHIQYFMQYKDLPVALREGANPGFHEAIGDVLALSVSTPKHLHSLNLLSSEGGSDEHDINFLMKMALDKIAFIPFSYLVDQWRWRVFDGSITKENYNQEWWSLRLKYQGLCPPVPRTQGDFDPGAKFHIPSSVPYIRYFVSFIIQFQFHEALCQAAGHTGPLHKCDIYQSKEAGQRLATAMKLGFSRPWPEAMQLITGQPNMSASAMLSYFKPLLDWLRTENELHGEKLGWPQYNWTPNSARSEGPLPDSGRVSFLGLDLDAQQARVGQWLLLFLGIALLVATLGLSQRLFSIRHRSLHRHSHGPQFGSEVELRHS

CC(=O)Oc1ccccc1C(=O)O [Aspirin]
Clinical Result: antiplatelet effect [1]: Reduced response in patients

C[C@H](N[C@@H](CCc1ccccc1)C(=O)O)C(=O)N1CCC[C@H]1C(=O)O [Enalaprilat]
Clinical Result: response (ACE (I/D)): Better response of patients

NS(=O)(=O)c1cc2c(cc1Cl)NCNS2(=O)=O [Hydrochlorothiazide]
Clinical Result: sensitivity (Alpha-Adducin): hypertension). Higher

O=c1[nH]c2ccccc2n1CCCN1CCN(C(c2ccccc2)c2ccccc2)CC1 [Oxatomid]
Clinical Result: adverse effect (KCNE2 (T8A in MiRP 1)): Drug induced Long-QT-

Cc1cc(NS(=O)(=O)c2ccc(N)cc2)no1 [Sulfamethoxazol]
Clinical Result: adverse effect (KCNE2 (T8A in MiRP 1)): Drug induced Long-QT-

CC(c1cc2ccccc2s1)N(O)C(N)=O (centres unmarked) [Zileuton]
Clinical Result (5-Lipoxygenase (ALOX5)): No effect in patients who

CCOC(=O)[C@H](CCc1ccccc1)N[C@@H](C)C(=O)N1CCC[C@H]1C(=O)O [enalapril]
Clinical Result: response (ACE (I/D)): Better response of patients

B1: Abciximab (antibody, chains of the INN, looked up, V domains shown)
VH: EVQLQQSGTVLARPGASVKMSCEASGYTFTNYWMHWVKQRPGQGLEWIGAIYPGNSDTSYIQKFKGKAKLTAVTSTTSVYMELSSLTNEDSAVYYCTLYDGYYVFAYWGQGTLVTVSA
VL: EIVLTQSPVTLSVTPGDSVSLSCRASRDISNNLHWFQQTSHESPRLLIKYASQSMSGIPSRFSGSGSGTDFTLSINSVETEDFGMYFCQQTNSWPYTFGGGTKLEIK
Clinical Result: antiplatelet effect [1]: Reduced response in patients
